In US5202348A, “Thiarubrine antifungal agents” (The University of British Columbia, priority 1990, dated 1993):
≈ marks a conversion by molar mass, not a printed value. Like-named read-outs stand apart in the source and are kept apart here.

Legend:
[1] = Growth inhibition of P815 mastocytoma during 24 hours exposure; format: cell-based, Mouse; conditions: mouse, p815 cells
Experimental: (§1) P815 = Mouse mastocytoma […]
(§2) a logarithmic scale and percent of growth inhibition for 24 hours exposur
(§3) on a probability scale.

P815 = experiment: as above; format: cell-based, Mouse; conditions: Mus musculus, P815, 24 hours exposure
Experimental: as §1, §2, §3

[2] = Growth inhibition of 3T3 during 24 hours exposure; format: cell-based, Mouse; conditions: mouse, 3t3 cells; Table 2; read-out: Toxicity Index, LC50 3T3 / LC50 C. albicans
Experimental: (§4) 3T3 = Mouse fibroblasts
(§5) Doses inhibiting growth in 50% were estimated by plotting concentration o
as §2, §3

3T3 = experiment: Growth inhibition of 3T3 during 24 hours exposure; format: cell-based, Mouse; conditions: Mus musculus, NIH3T3; 24 hours exposure; Table 1; read-out: Concentration causing 50% growth inhibition
Experimental: as §4, §5, §2, §3

E. coli [3] = experiment: Growth inhibition of E. coli during 24 hours exposure; format: cell-based, Escherichia coli; conditions: Escherichia coli; 24 hours exposure; Table 4; read-out: Minimal concentration causing 50% growth inhibition
Experimental: as §5, §2, §3

Aspergillus = experiment: Minimal inhibitory concentration, agar dilution method; format: cell-based; conditions: 21 h
Experimental: (§6) Results were obtained by agar dilution method. Mueller Hinton agar plates (pH - 7.4) with different doses of ThD were inoculated with 10^4 cfu/spot and incubated 21 hours at 34°. MIC is the lowest concentration with no growth.

Klebsiella sp. = experiment: as above; format: cell-based; conditions: 21 h, No. 31
Experimental: as §6

Staphylococcus aureus = experiment: as above; format: cell-based; conditions: for MIC: Staphylococcus aureus, read-out: Minimal Inhibitory Concentration
Experimental: as §6

Streptococcus faecalis = experiment: as above; format: cell-based; conditions: Enterococcus faecalis, ATCC29212, 21 h; No. 2, ATCC 29212
Experimental: as §6

Aspergillus fumigatus = experiment: Sensitivity of Aspergillus fumigatus, agar diffusion method; format: cell-based; conditions: disc diameter 6 mm, read-out: Zone of Growth Inhibition
Description: Results were obtained by agar diffusion method. Disc diameter - 6 mm. -* = no zone over disc diameter.

C. albicans [4] = experiment: Temperature and time dependent degradation of ThD in water solution (LC50 on C. albicans); format: cell-based; conditions: Candida albicans
Description: (§7) Data on degradation of Thiarubrine D (ThD) expressed as changes of concentration required to inhibit growth of C. albicans in 50% during 24 hrs. exposure (Lc50 24 hrs.).

C. albicans [5] = experiment: Influence of exposure of ThD for two hrs. to different pH (LC50 on C. albicans); format: cell-based; conditions: Candida albicans, two hrs. in sodium phosphate buffer
Description: as §7

bacteria = experiment: Anti-bacterial activity (summary); format: cell-based; conditions: Table 14
C. albicans [6] = experiment: Growth inhibition of C. albicans during 24 hours exposure; format: cell-based, Candida albicans; conditions: Candida albicans; 24 hours exposure; Table 3; read-out: Minimal concentration causing 100% growth inhibition
E. coli [7] = experiment: Growth inhibition of E. coli during 24 hours exposure; format: cell-based, Escherichia coli; conditions: Escherichia coli; 24 hours exposure; Table 3; read-out: Minimal concentration causing 100% growth inhibition
P. aeruginosa = experiment: Growth inhibition of P. aeruginosa during 24 hours exposure; format: cell-based, Pseudomonas aeruginosa; conditions: Pseudomonas aeruginosa, Table 3, read-out: Minimal concentration causing 100% growth inhibition
[8] = Stability / decomposition of thiarubrines; conditions: under light

With CC#CC1=CC=C(C#CC#CC2CO2)SS1 (stereo not shown) [Thiarubrine D] the selectivity ratio at 24 h ([1]; 50% growth inhibition, Table 4, read-out: Ratio of concentration needed to inhibit growth in 50%, P815 vs C. albicans) was 200, the selectivity ratio at 24 h ([1]; 100% growth inhibition, Table 3, read-out: Ratio of minimal concentration causing 100% growth inhibition, P815 line vs C. albicans) was ~500 and the selectivity ratio at 24 h ([1]; Table 2, read-out: Toxicity Index, LC50 P815 / LC50 C. albicans) was 200. For the same molecule, the IC50 (P815; Table 1, read-out: Concentration causing 50% growth inhibition) was 0.12 µg/mL (≈ 0.491 µM), the IC100 (P815; Table 3, read-out: Minimal concentration causing 100% growth inhibition) was 1.25 µg/mL and the IC50 (P815; Table 4, read-out: Minimal concentration causing 50% growth inhibition) was 0.12 µg/mL (≈ 0.491 µM). For the same molecule, the selectivity ratio at 24 h [2] was 800, the IC50 (3T3) was 0.48 µg/mL (≈ 1.96 µM) and the IC50 (E. coli [3]) was 0.02 µg/mL (≈ 0.0819 µM). It also gave an MIC (Aspergillus; No. 21, strain 05) of 0.032 µg/mL (≈ 0.131 µM), an MIC (Aspergillus; No. 34, strain F604) of 0.064 µg/mL (≈ 0.262 µM) and an MIC (Klebsiella sp.) of 1 µg/mL (≈ 4.09 µM). For the same molecule, the “Minimal Inhibitory Concentration” value (Staphylococcus aureus; No. 16, strain B4287 (metacylliu res.)) was 10,000 ng/ml, the MIC (Staphylococcus aureus; 21 h) was 10 µg/mL (≈ 40.9 µM) and the MIC (Staphylococcus aureus; ATCC25923, 21 h, No. 1, ATCC 25923) was 10 µg/mL (≈ 40.9 µM). It also gave an MIC (Staphylococcus aureus; ATCC29213, 21 h, No. 5, ATCC 29213) of 10 µg/mL (≈ 40.9 µM), an MIC (Streptococcus faecalis) of 10 µg/mL (≈ 40.9 µM) and a zone of inhibition at 0.01 µg/disc (Aspergillus fumigatus; 10 ng/disc) of 14 mm. The zone of inhibition at 0.1 µg/disc (Aspergillus fumigatus; 100 ng/disc) was 23 mm, the zone of inhibition at 1 µg/disc (Aspergillus fumigatus; 1,000 ng/disc) was 26 mm and the zone of inhibition at 10 µg/disc (Aspergillus fumigatus; 10,000 ng/disc) was 32 mm. The IC50 (C. albicans [4]; 0 hrs., 37° C., read-out: LC50 24 Hrs.) was 0.007 µg/mL (≈ 0.0286 µM), the IC50 (C. albicans [4]; 0 hrs., room temperature, read-out: LC50 24 Hrs.) was 0.007 µg/mL (≈ 0.0286 µM) and the IC50 (C. albicans [4]; 0.5 hrs., 37° C., read-out: LC50 24 Hrs.) was 0.02 µg/mL (≈ 0.0819 µM). The IC50 (C. albicans [4]; 0.5 hrs., room temperature, read-out: LC50 24 Hrs.) was 0.016 µg/mL (≈ 0.0655 µM), the IC50 (C. albicans [4]; 2 hrs., 37° C., read-out: LC50 24 Hrs.) was 0.033 µg/mL (≈ 0.135 µM) and the IC50 (C. albicans [4]; 2 hrs., room temperature, read-out: LC50 24 Hrs.) was 0.022 µg/mL (≈ 0.09 µM). The IC50 (C. albicans [4]; 6 hrs., 37° C., read-out: LC50 24 Hrs.) was 0.085 µg/mL (≈ 0.348 µM), the IC50 (C. albicans [4]; 6 hrs., room temperature, read-out: LC50 24 Hrs.) was 0.042 µg/mL (≈ 0.172 µM) and the IC50 (C. albicans [4]; 24 h, 37° C.) was 0.21 µg/mL (≈ 0.859 µM). For the same molecule, the IC50 (C. albicans [4]; 24 h, room temperature) was 0.11 µg/mL (≈ 0.45 µM), the IC50 (C. albicans [5]; pH 5) was 0.04 µg/mL (≈ 0.164 µM) and the IC50 (C. albicans [5]; pH 6) was 0.034 µg/mL (≈ 0.139 µM). For the same molecule, the IC50 (C. albicans [5]; pH 7) was 0.02 µg/mL (≈ 0.0819 µM), the IC50 (C. albicans [5]; pH 8) was 0.052 µg/mL (≈ 0.213 µM) and the Anti-bacterial (bacteria) was “Y”. For the same molecule, the MIC (C. albicans [6]) was 0.0024 µg/mL (≈ 0.00982 µM), the MIC (E. coli [7]) was 0.078 µg/mL (≈ 0.319 µM) and the MIC (P. aeruginosa) was 0.625 µg/mL (≈ 2.56 µM). For the same molecule, the Light sensitivity [8] was “light sensitive and breaks down under light to the corresponding thiophene”.
